Consider 3 substances from publication PMC7194015, “Proline-Rich Antimicrobial Peptides in Medicinal Maggots of Lucilia sericata Interact With Bacterial DnaK But Do Not Inhibit Protein Synthesis” (Frontiers in Pharmacology, 2020).

In assay [1] the test system is panel of 114 multi-drug resistant clinical isolates. On the set-up: method as in Hirsch et al., 2019. The note with it: ref Hirsch et al., 2019; cited from earlier work.
A further assay has as its system E. coli JM83. Put plainly: Atomic force microscopy of bacterial cell surface. The assay is classed as cell-based. The note with it: 90 min at 37°C. On the procedure: Bacterial samples were prepared for atomic force microscopy (AFM) as previously described ([Zdybicka-Barabas et al., 2012]; [Zdybicka-Barabas et al., 2013]). Briefly, log-phase E. coli JM83 cells (OD600 = 0.2) in 100 µL lysogeny broth were incubated at 37°C for 90 min in the presence of individual or combined AMPs, or without AMPs as a negative control. We used concentrations of 50 μM Lser-PRP2, 50 μM Lser-PRP3, and 0.25 μM Lser-stomoxyn. The samples were centrifuged (8,000 × g, 4°C, 10 min), washed twice with apyrogenic water, resuspended in 5 μl apyrogenic water, applied to mica disks and allowed to dry at 28°C overnight.
The cell surface was imaged using a NanoScope V AFM (Veeco, Plainview, NY, USA) in Peak Force QNM operation mode and a silicon tip NSG 30 with a spring constant of 20 N/m (NT-MDT, Moscow, Russian Federation). The results were processed using Nanoscope Analysis v1.40 (Veeco). Three fields on each mica disk were imaged. The roughness values were measured over the entire bacterial cell surface in 3 × 3 µm areas. The average surface root mean square (RMS) roughness was calculated from 25 fields (300 × 300 nm). Section profiles and 3D images were produced using WSxM v5.0 ([Horcas et al., 2007]).

Assay [2] has as its system E. coli JM83 cells carrying plasmid pCH110. Kind of assay: Bacterial membrane permeabilization assay (β-galactosidase release). The class given is cell-based. On the procedure:
We tested the activity of the L. sericata AMPs against E. coli JM83, carrying plasmid pCH110 (Pharmacia-Amersham, Piscatway, NJ, USA).
Membrane permeabilization was quantified by measuring the activity of β-galactosidase released from E. coli JM83 cells carrying plasmid pCH110, which encodes a constitutive, cytoplasmic form of the enzyme ([Zdybicka-Barabas et al., 2013]). The peptides were pre-incubated for 15 min at 37°C in 23 μl 20 mM phosphate buffer (pH 6.8) before adding 2 μl of a suspension of mid-logarithmic phase E. coli cells (5 × 10^5 colony forming units, prepared in the same buffer). The final AMP concentrations were 0.0625–2 µM Lser-stomoxyn and up to 50 µM for the Lser-PRPs ([Pöppel et al., 2015]; [Hirsch et al., 2019]). After incubation for 45 min at 37°C, we added 220 μl 20 mM HEPES/150 mM NaCl (pH 7.5) and 5 μl 50 mM p-nitrophenyl-β-D-galactopyranoside. We incubated the samples at 37°C for a further 90 min and then measured the absorbance at 405 nm, which is proportional to the amount of released β-galactosidase. Live bacteria incubated in growth medium as well as dead bacteria after treatment with 5 µM synthetic cecropin B (Sigma-Aldrich) served as control samples. We set the perforation level of dead bacteria to 100%. All assays were performed six times in triplicate for each type of sample.

Another assay relates to Gram-negative bacteria. The note with it: ref Pöppel et al., 2015; Hirsch et al., 2019; cited from earlier work. The source says: Several previous investigations have addressed the AMP repertoire of L. sericata. […] More recent studies have characterized the defensin-family AMP lucifensin ([Andersen et al., 2010]; [Čeřovský et al., 2010]; [Čeřovský et al., 2011]) and the antifungal AMP lucimycin ([P ...

The next assay concerns the target T1, bacterial chaperone DnaK (Escherichia coli, UniProt P0A6Y8).
T1 construct: made in house
Put plainly: FRET assay, DnaK-binding (fluorescence quenching with DnaK-BHQ10). The note with it: for maximum quenching effect: n = 3; for Kd: N-terminal 5(6)-carboxyfluorescein, C-terminal amide, quenching assay, non-linear regression (SlideWrite v7.01). How it is done: Lser-stomoxyn, Lser-PRP2, and Lser-PRP3 were synthesized by PANATecs (Tübingen, Germany) at >95% purity with C-terminal amidation (Table 1). For the quenching assay, Lser-PRP2 and Lser-PRP3 were synthesized with N-terminal 5(6)-carboxyfluorescein and C-terminal amidation. DnaK was produced by Michael Zahn ([Knappe et al., 2011]). The Black Hole Quencher 10 succinimidyl ester (BHQ10-NHS ester, > 75% purity) was purchased from BioCat (Heidelberg, Germany).
DnaK (2 mg/ml) was dialyzed against the modifying buffer (20 mM Na2HPO4, 20 mM KH2PO4, 5 mM MgCl2, 150 mM KCl; pH 7.4) before labeling with a 10-fold molar excess of BHQ10-NHS ester ([Kreisig et al., 2011]; [Dobslaff et al., 2012]). Excess BHQ10 was removed by further dialysis and the final DnaK concentration was adjusted to […]. To evaluate the labeling efficiency, we measured BHQ10 absorption at 515 nm, and calculated the ratio of dye to protein (mean labeling degree, nine BHQ10 molecules per DnaK).
We mixed 50 μl of the fluorescein-modified peptides (1.3 nM) with 50 μl of a 1:4 serial dilution series of DnaK-BHQ10 in modification buffer (0.8–13,000 nM) in a solid black 384-well plate and incubated the plates for 2 h as previously described ([Dobslaff et al., 2012]). To calculate the quenching effect, control mixtures (50 μl of the peptide solution and 50 μl of the modification buffer) were recorded five times. We recorded the fluorescence intensity on a Paradigm fluorescence reader using a fluorescence (fluo-rhod) detection cartridge (excitation wavelength = 485 ± 10 nm, emission wavelength = 535 ± 12.5 nm, integration time = 140 ms). The quenching effect was expressed as the percentage of the fluorescence intensity of the control quenched after the addition of DnaK-BHQ10.
Dissociation constants (Kd) were determined using SlideWrite v7.01. The quenching effects were plotted against the DnaK concentration (logarithmic abscissa). Kd values were calculated by non-linear regression using the dose–response logistical transition function of the program [y = a 0 + a 1/(1 + x/a 2) a3].

Setting [3] is: Figure 2 legend, N-terminal 5(6)-carboxyfluorescein peptide, DnaK-BHQ10.
Where [4] appears, read: N-terminal 5(6)-carboxyfluorescein peptide (1.3 nM) + DnaK-BHQ10 (0.8–13,000 nM), 2 h, 384-well, pH 7.4, sigmoidal curve.

Ends that are not written are not given here.

T1 sequence (P0A6Y8 whole entry): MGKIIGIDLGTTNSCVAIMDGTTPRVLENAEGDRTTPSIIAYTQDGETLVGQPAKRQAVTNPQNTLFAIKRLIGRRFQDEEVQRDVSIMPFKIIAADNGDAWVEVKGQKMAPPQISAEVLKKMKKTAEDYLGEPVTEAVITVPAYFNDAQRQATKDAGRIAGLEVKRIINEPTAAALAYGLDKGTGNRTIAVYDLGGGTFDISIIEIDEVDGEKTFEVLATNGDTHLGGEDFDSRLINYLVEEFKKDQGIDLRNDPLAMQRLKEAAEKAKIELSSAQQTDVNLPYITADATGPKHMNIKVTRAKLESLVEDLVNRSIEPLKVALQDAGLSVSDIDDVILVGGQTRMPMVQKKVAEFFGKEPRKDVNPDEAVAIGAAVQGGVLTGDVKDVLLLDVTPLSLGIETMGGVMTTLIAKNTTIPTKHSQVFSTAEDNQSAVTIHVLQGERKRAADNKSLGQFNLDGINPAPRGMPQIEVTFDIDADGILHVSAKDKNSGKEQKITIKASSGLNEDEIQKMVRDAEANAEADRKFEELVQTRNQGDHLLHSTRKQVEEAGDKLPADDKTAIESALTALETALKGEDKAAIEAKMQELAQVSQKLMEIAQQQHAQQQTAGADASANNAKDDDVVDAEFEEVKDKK

Regarding “GFRKRFNKLVKKVKHTIKETANVSKDVAIVAGSGVAVGAAMG [Lser-Stomoxyn, Lucilia sericata canonical α-helical antimicrobial peptide, synthesized at >95% purity with C-terminal amidation]”, in assay [1], the “activity against clinical isolates” value was “showed activity against clinical isolates of E. coli, Enterobacter spp., Klebsiella spp., Salmonella enterica, Citrobacter freundii, and Acinetobacter spp., as well as multiple isolates of P. aeruginosa”. In addition, the Adhesion forces in the assay on E. coli JM83 (0.25 µM, mean ± SD of 25 fields, control 0.174 (± 0.04), ***p ≤ 0.001 vs control, letter a: differs from combination) is 0.236 (± 0.079)^a*** nN. The Roughness with E. coli JM83 (0.25 µM, mean ± SD of 25 fields, control 0.843 (± 0.22), ***p ≤ 0.001 vs control, letter b: differs from combination) was 1.102 (± 0.373)^b*** nm. For the same substance, the “Young's modulus” value with E. coli JM83 (0.25 µM, mean ± SD of 25 fields, control 2458 (± 24.52), **p ≤ 0.01 vs control) was 2601 (± 32.19)** MPa. Further, the flagella entry in the assay with E. coli JM83 (Lser-stomoxyn 0.25 µM alone) is reported as “lost their flagella”. For the same substance, the “cell surface granularity vs controls” value with E. coli JM83 (Lser-stomoxyn 0.25 µM or Lser-PRP2 50 µM alone) is recorded as “considerably more granular than that of the controls”. The bacterial membrane permeabilization is 1% in assay [2] (0.25 µM, abstract); 12% in assay [2] (1 µM, 45 min at 37°C, bacteria killed by 5 µM cecropin B = 100%, n = 6); 40% in assay [2] (2 µM, 45 min at 37°C, bacteria killed by 5 µM cecropin B = 100%, n = 6); “little evidence of permeabilization” in assay [2] (0.0625 or 0.125 µM, 45 min at 37°C, 20 mM phosphate pH 6.8, n = 6); 1–2% in assay [2] (0.25–0.5 µM, 45 min at 37°C, bacteria killed by 5 µM cecropin B = 100%, n = 6). For the same substance, the antibacterial activity result in the assay on Gram-negative bacteria is “particularly active against Gram-negative bacteria”.
With “EWRPHGSIGGSGLRPGRPQTLPPQRPRRPDFNGPRHRF-NH2 [Lser-PRP2]”, the maximum quenching effect was more than 80% at bacterial chaperone DnaK (setting [3]) and 85–88% at bacterial chaperone DnaK (setting [4]). At bacterial chaperone DnaK, this substance came in with a Kd of 0.14 ± 0.01 µM.
For “SPFVDRPRRPIQHNGPKPRIITNPPFNPNARPAW-NH2 [Lser-PRP3]”, the maximum quenching effect on bacterial chaperone DnaK (setting [3]) is listed as more than 80%; on bacterial chaperone DnaK (setting [4]), 85–88%. This substance also yielded a Kd at bacterial chaperone DnaK of 0.3 ± 0.006 µM.

In general, Kd refers to the constant that tells how readily two partners part at equilibrium. Low readings indicate tighter binding, high ones weaker binding.
